Data published in patent US7351737B2, “4-[(8-substituted)-6-chromanoyl]-and 4-[8-substituted)-chroman-6-YL-ethynyl]-benzoic and phenylacetic acids, their esters and salts having cytochrome P450RAI inhibitory activity” (Allergan, Inc., priority 2002, dated 2008).

How the values were obtained:
RARα = target: T1, RARα (Homo sapiens, UniProt P10276); experiment: chimeric receptor transactivation assay, RARα; type: cell-based; conditions: for RAR α (EFFICACY): value in brackets
T1 sequence (P10276 183-417 limits assumed): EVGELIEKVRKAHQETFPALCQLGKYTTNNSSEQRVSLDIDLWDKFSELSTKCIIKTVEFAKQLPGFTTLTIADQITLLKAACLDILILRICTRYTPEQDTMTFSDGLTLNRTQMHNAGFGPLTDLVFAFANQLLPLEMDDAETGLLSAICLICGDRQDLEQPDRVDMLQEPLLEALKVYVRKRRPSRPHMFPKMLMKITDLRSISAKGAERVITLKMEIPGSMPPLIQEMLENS
From the text: (§1) Assays described below measure the ability of a compound to bind to, and/or activate various retinoid receptor subtypes. When in these assays a compound binds to a given receptor subtype and activates the transcription of a reporter gene through that subtype, then the compound is considered an agonist of that receptor subtype. […] In the below described assays the ability of the compounds to bind to RARα, RARβ, RARγ, RXRα, RXRβ and RXRγ receptors, and the ability or inability of the compounds to activate transcription of a reporter gene through these receptor subtypes can be tested.
(§2) As far as specific assays are concerned, a chimeric receptor transactivation assay which tests for agonist-like activity in the RARα, RARβ, and RARγ, receptor subtypes, and which is based on work published by Feigner P. L. and Holm M. (1989) Focus, 112 is described in detail in U.S. Pat. No. 5,455,265. The specification of U.S. Pat. No. 5,455,265 is hereby expressly incorporated by reference. The numeric results obtained with several preferred compounds of this invention in this assay are shown below in Table 1.
(§3) A holoreceptor transactivation assay and a ligand binding assay which measure the antagonist/agonist like activity of the compounds of the invention, or their ability to bind to the several retinoid receptor subtypes, respectively, are described in published PCT Application No. WO WO93/11755 (particularly on pages 30-33 and 37-41) published on Jun. 24, 1993, the specification of which is also incorporated herein by reference. A detailed experimental procedure for holoreceptor transactivations has been described by Heyman et al. Cell 68, 397-406, (1992); Allegretto et al. J. Biol. Chem. 268, 26625-26633, and Mangelsdorf et al. The Retinoids: Biology, Chemistry and Medicine, pp 319-349, Raven Press Ltd., New York, which are expressly incorporated herein by reference. The results obtained in this assay are expressed in EC50 numbers, as they are also in the chimeric receptor transactivation assay. The results of ligand binding assay are expressed in Kd numbers. (See Cheng et al. Biochemical Pharmacology Vol. 22 pp 3099-3108, expressly incorporated herein by reference.)

RARγ = target: T2, RARγ (Homo sapiens, UniProt P13631); experiment: chimeric receptor transactivation assay, RARγ; type: cell-based; conditions: for RAR γ (EFFICACY): value in brackets
T2 sequence (P13631 185-419 limits assumed): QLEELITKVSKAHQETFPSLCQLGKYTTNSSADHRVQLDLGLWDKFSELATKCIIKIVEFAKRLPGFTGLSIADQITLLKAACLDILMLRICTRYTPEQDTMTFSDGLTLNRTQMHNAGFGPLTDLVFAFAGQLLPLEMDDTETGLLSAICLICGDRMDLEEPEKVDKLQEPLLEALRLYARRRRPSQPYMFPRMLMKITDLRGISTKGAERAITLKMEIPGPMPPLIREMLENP
From the text: as §1, §2, §3

skin of fuzzy rats = experiment: Topical skin irritation test; type: in vivo, female fuzzy rats (Hsd:FUZZY-fz); conditions: topical in acetone, daily Day 1-14, group average of grade 0-4
From the text: The topical retinoid all-trans-retinoic acid (ATRA) and oral retinoids such as 13-cis RA and etretinate are known to induce substantial skin irritation in humans. This irritation is a direct result of activation of the RAR nuclear receptors. Analysis of retinoid topical irritation is also a highly reproducable method of determining in vivo retinoid potency. The female fuzzy rats provide a convenient animal model of topical irritation, since retinoid-induced skin flaking and abrasion can be readily scored by eye, while their larger size than those of mice also allows multiple sampling of serum for clinical analyses. Topical application of P450RAI inhibitors should cause an increase in the endogenous levels of ATRA that would result in ATRA-induced irritation in skin of hairless mice. In these tests female fuzzy rats ((Hsd:FUZZY-fz), 6-7 weeks old, were obtained from Harlan Sprague-Dawley (Indianapolis, Ind.). The animals were about 8-9 weeks old at the start of the experiments. Food (Purina Rodent Chow 5001) and water purified by reverse osmosis were provided ad libitum. The rats were housed individually throughout the dosing period. Test chemicals were dissolved in acetone (vehicle) for application to the backs of the rats. Two days prior to actual administration of the test compounds, rats were handled daily and dosed with vehicle at a volume of 0.5 ml/kg. Starting on Day 1 thought Day 14 (dosing period), animals were dosed with the vehicle or compound(s) according to their group assignment. The rats in the tests were observed daily and the dorsal skin was graded for the degree of erythema/eschar and overall appearance. The scoring was in accordance with Table 2, below. [table] Daily group average was calculated by dividing the sum of the individual grade by the number of animals in each treatment group. The attached data in Table 3 indicates the retinoid-mimetic effects of some P450RAI inhibitors on the skin of fuzzy rats in the above described tests and in accordance with the above-indicated scoring.

RARβ = target: T3, RARβ (Homo sapiens, UniProt P10826); experiment: chimeric receptor transactivation assay, RARβ; type: cell-based; conditions: first item of cell EC50/(EFFICACY)/Kd, read-out: RAR β EC50
T3 sequence (P10826 183-417 limits assumed): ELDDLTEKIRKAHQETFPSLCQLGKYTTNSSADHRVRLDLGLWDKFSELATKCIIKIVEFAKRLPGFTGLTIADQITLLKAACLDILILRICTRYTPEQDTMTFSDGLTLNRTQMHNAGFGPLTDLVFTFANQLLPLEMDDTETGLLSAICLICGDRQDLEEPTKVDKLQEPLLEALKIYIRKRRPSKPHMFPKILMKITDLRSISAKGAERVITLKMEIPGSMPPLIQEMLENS
From the text: as §1
as §2, with “1. […]” for “1.”

Row | RAR α (EFFICACY) (RARα) | RAR γ (EFFICACY) (RARγ) | SMILES | Irritation Score on day 14 (skin of fuzzy rats; 1% compound + 0.1% retinol) | Irritation Score on day 14 (skin of fuzzy rats; 1% compound alone) | other results
1 | 10 | 20 | C#Cc1cc(C#Cc2ccc(CC(=O)O)c(F)c2)cc2c1OC(C)(C)CC2(C)C [Compound 41, [4-(8-Ethynyl-2,2,4,4-tetramethyl-chroman-6-ylethynyl)-2-fluoro-phenyl]-acetic acid] |  |  | 
2 |  |  | C#Cc1cc(C(=O)Oc2ccc(CC(=O)OCC)cc2)cc2c1OC(C)(C)CC2(C)C [Compound 2, 8-Ethynyl-2,2,4,4-tetramethyl-chroman-6-carboxylic acid 4-ethoxycarbonylmethyl-phenyl ester] | 1.6 | 0 | 
3 | 15 | 30 | C#Cc1cc(C#Cc2ccc(CC(=O)O)cc2)cc2c1OC(C)(C)CC2(C)C [Compound 40, [4-(8-Ethynyl-2,2,4,4-tetramethyl-chroman-6-ylethynyl)-phenyl]-acetic acid] |  |  | EC50 (RARα; first item of cell EC50/(EFFICACY)/Kd, read-out: RAR α EC50): 129 nM; EC50 (RARβ): 101 nM; EC50 (RARγ; first item of cell EC50/(EFFICACY)/Kd, read-out: RAR γ EC50): 149 nM
4 | 20 | 20 | C#Cc1cc(C(=O)Oc2ccc(CC(=O)O)c(F)c2)cc2c1OC(C)(C)CC2(C)C [Compound 4, 8-Ethynyl-2,2,4,4-tetramethyl-chroman-6-carboxylic acid-4-carboxymethyl-3-fluoro-phenyl ester] | 3.4 | 1.4 | EC50 (RARβ): 263 nM
5 |  |  | C#Cc1cc(C(=O)Oc2ccc(CC(=O)O)cc2)cc2c1OC(C)(C)CC2(C)C [Compound 1, 8-Ethynyl-2,2,4,4-tetramethyl-chroman-6-carboxylic acid 4-carboxymethyl-phenyl ester] |  |  | Irritation Score on day 14 (skin of fuzzy rats; 3% compound + 0.1% retinol): 1; Irritation Score on day 14 (skin of fuzzy rats; 3% compound alone): 2.6
6 |  |  | C#Cc1cc(C(=O)Oc2ccc(CC(=O)OCOC(C)=O)cc2)cc2c1OC(C)(C)CC2(C)C [Compound 3, 8-Ethynyl-2,2,4,4-tetramethyl-chroman-6-carboxylic acid 4-acetoxymethoxycarbonylmethyl-phenyl ester] | 2.4 | 0 | 

Row | SMILES | RAR α (EFFICACY) (RARα) | RAR γ (EFFICACY) (RARγ) | Irritation Score on day 14 (skin of fuzzy rats; 1% compound + 0.1% retinol) | Irritation Score on day 14 (skin of fuzzy rats; 1% compound alone) | other results
7 | C#Cc1cc(C(=O)Oc2ccc(CC(=O)OCOC(C)=O)c(F)c2)cc2c1OC(C)(C)CC2(C)C [Compound 5, 8-Ethynyl-2,2,4,4-tetramethyl-chroman-6-carboxylic acid 4-acetoxymethoxycarbonylmethyl-3-fluoro-phenyl ester] | 10 |  |  |  | Irritation Score on day 14 (skin of fuzzy rats; 0.1% compound + 0.1% retinol): 2.2; Irritation Score on day 14 (skin of fuzzy rats; 0.1% compound alone): 0.4
